Relative viability data for seven cell lines are collected here from the supplement of paper PMC10307832.

Common to all, as to assay: relative viability (nuclei count vs DMSO), 5 days (fraction); higher = more cells survive
Compound in the test “GSK-J4 + Palbociclib”: CCOC(=O)CCNc1cc(N2CCc3ccccc3CC2)nc(-c2ccccn2)n1 [GSK-J4] + CC(=O)c1c(C)c2cnc(Nc3ccc(N4CCNCC4)cn3)nc2n(C2CCCC2)c1=O [Palbociclib] (partner 0.5 µM)
In outline: (§1)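 One day after seeding in 1536-well plates, lung cancer cell lines were dosed by pin tool. Dosing was either single-drug or a fixed anchor-drug dose plus five library-drug doses (not always all listed) in √10 steps. After 5 days, nuclei were stained in one fix-and-stain step and counted on 4× images, and relative viability is the nuclei count of treated wells over that of vehicle wells, given as the median of duplicate plates.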

Compound in the test “GSK-J4 + Alpelisib”: CCOC(=O)CCNc1cc(N2CCc3ccccc3CC2)nc(-c2ccccn2)n1 [GSK-J4] + Cc1nc(NC(=O)N2CCC[C@H]2C(N)=O)sc1-c1ccnc(C(C)(C)C(F)(F)F)c1 [Alpelisib] (partner 2 µM)
In outline: as §1

Compound in the test “AZ3146 + Pictilisib”: CN1CCC(CC1)OC2=CC(=C(C=C2)NC3=NC=C4C(=N3)N(C(=O)N4C)C5CCCC5)OC [AZ3146] + CS(=O)(=O)N1CCN(Cc2cc3nc(-c4cccc5[nH]ncc45)nc(N4CCOCC4)c3s2)CC1 [Pictilisib] (partner 1 µM)
In outline: as §1

Compound in the test “AZ3146 + Pemetrexed”: CN1CCC(CC1)OC2=CC(=C(C=C2)NC3=NC=C4C(=N3)N(C(=O)N4C)C5CCCC5)OC [AZ3146] + Nc1nc2[nH]cc(CCc3ccc(C(=O)N[C@@H](CCC(=O)O)C(=O)O)cc3)c2c(=O)[nH]1 [Pemetrexed] (partner 0.2 µM)
In outline:
as §1

Turning to NCI-H358, the relative viability in the test with GSK-J4 + Palbociclib (first compound 0.5 µM) was 0.139; with GSK-J4 + Palbociclib (first compound 5 µM) it was 0.154; in the test with GSK-J4 + Palbociclib (first compound 15.81 µM) it was 0.104; with GSK-J4 + Palbociclib (first compound 50 µM) it was 0.138; with GSK-J4 + Alpelisib (first compound 0.5 µM) it was 0.868; in the test with GSK-J4 + Alpelisib (first compound 1.581 µM), 0.639. Moreover, the relative viability in the test with GSK-J4 + Alpelisib (first compound 5 µM) stood at 0.98; with GSK-J4 + Alpelisib (first compound 15.81 µM) it was 0.876; with GSK-J4 + Alpelisib (first compound 50 µM), 0.773; with AZ3146 + Pictilisib (first compound 0.08 µM), 0.355; in the test with AZ3146 + Pictilisib (first compound 0.253 µM), 0.39; in the test with AZ3146 + Pictilisib (first compound 0.8 µM), 0.394. Moreover, the relative viability with AZ3146 + Pictilisib (first compound 2.53 µM) is 0.398; with AZ3146 + Pictilisib (first compound 8 µM) it was 0.326; with AZ3146 + Pemetrexed (first compound 0.08 µM) it was 0.153; with AZ3146 + Pemetrexed (first compound 0.253 µM) it was 0.168; with AZ3146 + Pemetrexed (first compound 0.8 µM) it was 0.192; in the test with AZ3146 + Pemetrexed (first compound 2.53 µM), 0.171. In addition, the relative viability with AZ3146 + Pemetrexed (first compound 8 µM) was 0.156.
For NCI-H1395, the relative viability with GSK-J4 + Palbociclib (first compound 0.5 µM) is 0.546; with GSK-J4 + Palbociclib (first compound 1.581 µM), 0.518; in the test with GSK-J4 + Palbociclib (first compound 5 µM), 0.576; with GSK-J4 + Palbociclib (first compound 15.81 µM), 0.556; with GSK-J4 + Palbociclib (first compound 50 µM), 0.61; with GSK-J4 + Alpelisib (first compound 0.5 µM) it was 1.03. Moreover, the relative viability in the test with GSK-J4 + Alpelisib (first compound 1.581 µM) came out at 0.88; in the test with GSK-J4 + Alpelisib (first compound 5 µM), 0.845; in the test with GSK-J4 + Alpelisib (first compound 15.81 µM), 1.14; in the test with GSK-J4 + Alpelisib (first compound 50 µM) it was 0.821; in the test with AZ3146 + Pictilisib (first compound 0.08 µM), 0.536; in the test with AZ3146 + Pictilisib (first compound 0.253 µM), 0.628. In addition, the relative viability came to 0.539 with AZ3146 + Pictilisib (first compound 0.8 µM); 0.623 in the test with AZ3146 + Pictilisib (first compound 2.53 µM); 0.726 with AZ3146 + Pictilisib (first compound 8 µM); 0.783 with AZ3146 + Pemetrexed (first compound 0.08 µM); 0.746 in the test with AZ3146 + Pemetrexed (first compound 0.253 µM); 0.91 with AZ3146 + Pemetrexed (first compound 2.53 µM). Further, in the test with AZ3146 + Pemetrexed (first compound 8 µM), the relative viability came to 0.661.
In the case of LCLC-103H, the relative viability in the test with GSK-J4 + Palbociclib (first compound 0.5 µM) is 0.447; with GSK-J4 + Palbociclib (first compound 1.581 µM), 0.36; in the test with GSK-J4 + Palbociclib (first compound 5 µM) it was 0.455; in the test with GSK-J4 + Palbociclib (first compound 15.81 µM), 0.449; with GSK-J4 + Palbociclib (first compound 50 µM) it was 0.49; with GSK-J4 + Alpelisib (first compound 0.5 µM), 0.934. The relative viability was 0.859 with GSK-J4 + Alpelisib (first compound 1.581 µM); 1.09 in the test with GSK-J4 + Alpelisib (first compound 5 µM); 0.986 with GSK-J4 + Alpelisib (first compound 15.81 µM); 1.11 with GSK-J4 + Alpelisib (first compound 50 µM); 0.548 with AZ3146 + Pictilisib (first compound 0.08 µM); 0.672 in the test with AZ3146 + Pictilisib (first compound 0.253 µM). Moreover, the relative viability was 0.557 in the test with AZ3146 + Pictilisib (first compound 0.8 µM); 0.492 with AZ3146 + Pictilisib (first compound 2.53 µM); 0.555 in the test with AZ3146 + Pictilisib (first compound 8 µM); 0.429 with AZ3146 + Pemetrexed (first compound 0.08 µM); 0.439 with AZ3146 + Pemetrexed (first compound 0.253 µM); 0.444 with AZ3146 + Pemetrexed (first compound 0.8 µM). Also, the figures for the relative viability in the test with AZ3146 + Pemetrexed (first compound 2.53 µM) and with AZ3146 + Pemetrexed (first compound 8 µM) were 0.49 and 0.499, respectively.
Regarding SK-MES-1, the relative viability with GSK-J4 + Palbociclib (first compound 0.5 µM) stood at 0.314; in the test with GSK-J4 + Palbociclib (first compound 1.581 µM), 0.29; with GSK-J4 + Palbociclib (first compound 5 µM) it was 0.319; in the test with GSK-J4 + Palbociclib (first compound 15.81 µM) it was 0.283; in the test with GSK-J4 + Palbociclib (first compound 50 µM) it was 0.313; with GSK-J4 + Alpelisib (first compound 0.5 µM) it was 0.783. For the same cell line, the relative viability with GSK-J4 + Alpelisib (first compound 1.581 µM) came out at 0.968; in the test with GSK-J4 + Alpelisib (first compound 5 µM), 0.842; with GSK-J4 + Alpelisib (first compound 15.81 µM), 0.805; with GSK-J4 + Alpelisib (first compound 50 µM), 0.819; with AZ3146 + Pictilisib (first compound 0.08 µM), 0.349; with AZ3146 + Pictilisib (first compound 0.253 µM), 0.376. The relative viability with AZ3146 + Pictilisib (first compound 0.8 µM) came out at 0.388; in the test with AZ3146 + Pictilisib (first compound 2.53 µM) it was 0.371; in the test with AZ3146 + Pictilisib (first compound 8 µM), 0.373; with AZ3146 + Pemetrexed (first compound 0.08 µM), 1.02; with AZ3146 + Pemetrexed (first compound 0.253 µM), 0.976; in the test with AZ3146 + Pemetrexed (first compound 0.8 µM), 0.965. Moreover, the results for the relative viability with AZ3146 + Pemetrexed (first compound 2.53 µM) and with AZ3146 + Pemetrexed (first compound 8 µM) were 0.997 and 0.792, respectively.
Consider PC-3 [JPC-3], for which the relative viability with GSK-J4 + Palbociclib (first compound 0.5 µM) was 0.499; with GSK-J4 + Palbociclib (first compound 1.581 µM), 0.511; in the test with GSK-J4 + Palbociclib (first compound 5 µM), 0.512; with GSK-J4 + Palbociclib (first compound 15.81 µM), 0.497; in the test with GSK-J4 + Palbociclib (first compound 50 µM) it was 0.514; with GSK-J4 + Alpelisib (first compound 0.5 µM), 0.984. The relative viability was found to be 0.961 with GSK-J4 + Alpelisib (first compound 1.581 µM); 1.06 with GSK-J4 + Alpelisib (first compound 5 µM); 0.997 in the test with GSK-J4 + Alpelisib (first compound 15.81 µM); 0.848 in the test with GSK-J4 + Alpelisib (first compound 50 µM); 0.669 with AZ3146 + Pictilisib (first compound 0.08 µM); 0.651 with AZ3146 + Pictilisib (first compound 0.253 µM). Further, the relative viability in the test with AZ3146 + Pictilisib (first compound 0.8 µM) is 0.766; in the test with AZ3146 + Pictilisib (first compound 2.53 µM), 0.8; with AZ3146 + Pictilisib (first compound 8 µM), 0.681; with AZ3146 + Pemetrexed (first compound 0.08 µM) it was 0.999; with AZ3146 + Pemetrexed (first compound 0.8 µM), 1.19; with AZ3146 + Pemetrexed (first compound 2.53 µM) it was 1.02. The relative viability in the test with AZ3146 + Pemetrexed (first compound 8 µM) is 0.942.
Regarding COR-L 105, the relative viability in the test with GSK-J4 + Palbociclib (first compound 0.5 µM) was determined as 0.428; with GSK-J4 + Palbociclib (first compound 5 µM), 0.342; with GSK-J4 + Palbociclib (first compound 15.81 µM), 0.415; in the test with GSK-J4 + Palbociclib (first compound 50 µM), 0.396; with GSK-J4 + Alpelisib (first compound 0.5 µM), 1.11; with GSK-J4 + Alpelisib (first compound 1.581 µM), 0.99. Besides, the relative viability with GSK-J4 + Alpelisib (first compound 5 µM) came out at 1.07; in the test with GSK-J4 + Alpelisib (first compound 15.81 µM) it was 0.912; in the test with GSK-J4 + Alpelisib (first compound 50 µM), 1.16; with AZ3146 + Pictilisib (first compound 0.08 µM) it was 0.38; with AZ3146 + Pictilisib (first compound 0.253 µM), 0.406; with AZ3146 + Pictilisib (first compound 0.8 µM), 0.419. Further, the relative viability came out at 0.356 with AZ3146 + Pictilisib (first compound 2.53 µM); 0.237 in the test with AZ3146 + Pictilisib (first compound 8 µM); 1.19 with AZ3146 + Pemetrexed (first compound 0.08 µM); 1.22 with AZ3146 + Pemetrexed (first compound 0.253 µM); 0.962 with AZ3146 + Pemetrexed (first compound 0.8 µM); 0.645 with AZ3146 + Pemetrexed (first compound 2.53 µM). In addition, in the test with AZ3146 + Pemetrexed (first compound 8 µM), the relative viability is 0.799.
Turning to EKVX, the relative viability with GSK-J4 + Palbociclib (first compound 0.5 µM) came out at 0.352; with GSK-J4 + Palbociclib (first compound 5 µM) it was 0.365; in the test with GSK-J4 + Palbociclib (first compound 15.81 µM) it was 0.352; in the test with GSK-J4 + Palbociclib (first compound 50 µM), 0.344; with GSK-J4 + Alpelisib (first compound 0.5 µM), 0.848; with GSK-J4 + Alpelisib (first compound 1.581 µM), 0.769. The relative viability in the test with GSK-J4 + Alpelisib (first compound 5 µM) amounted to 0.952; in the test with GSK-J4 + Alpelisib (first compound 15.81 µM), 0.824; with GSK-J4 + Alpelisib (first compound 50 µM) it was 0.776; with AZ3146 + Pictilisib (first compound 0.08 µM), 0.417; with AZ3146 + Pictilisib (first compound 0.253 µM) it was 0.433; in the test with AZ3146 + Pictilisib (first compound 0.8 µM), 0.259. For the same cell line, the relative viability in the test with AZ3146 + Pictilisib (first compound 2.53 µM) stood at 0.407; with AZ3146 + Pictilisib (first compound 8 µM), 0.545; in the test with AZ3146 + Pemetrexed (first compound 0.08 µM), 0.441; with AZ3146 + Pemetrexed (first compound 0.253 µM), 0.424; with AZ3146 + Pemetrexed (first compound 0.8 µM), 0.365; with AZ3146 + Pemetrexed (first compound 2.53 µM), 0.389. Besides, in the test with AZ3146 + Pemetrexed (first compound 8 µM), the relative viability is 0.422.
